Data: EP0354047A2, “Herbicidal method using atrazine” (MAY & BAKER LIMITED, priority 1988, dated 1990)

How the values were obtained:
maize var.Irla = experiment: Experiment 5: glasshouse, crop plants at 3 leaf stage, percentage phytotoxicity after 12 days; settings: for % crop phytotoxicity Maize (3 leaves): Atrazine 0 g/ha
Procedure: An experiment was carried out to determine the biological interaction between atrazine and Compound 74 on maize. A wide range of dose rates of atrazine i.e. 250, 500, 1000 and 2000 g/ha (in a commercial suspension concentrate formulation containing 500g/l w/v atrazine) and of Compound 74 i.e. 31, 63, 125, 250, 1000 and 2000 g/ha (in a composition according to Example 2 as described hereinafter) were applied in a spray volume of 290litres/ha to four replicate 10cm square plastic plant pots of loam soil containing one maize plant, at the 3 leaf growth stage. Agricultural surfactant ('Agral') was added to the spray dilutions to give 0.2%v/v concentration.
After spraying the pots were arranged in randomised blocks in a glasshouse and watered as necessary. After 12 days the plants were assessed for percentage phytotoxicity (reduction in green area compared with unsprayed plants) (0 = no effect 100 = complete destruction).
E = X + Y […] where E, X and Y are percentage phytotoxicity.
The ED values were then used to plot an isobole according to the method of P.M.L. Tammes op cit. The results of percentage phytotoxicity, the ED₂₀ values calculated from them and the calculated expected value are given in Table 9.

Xanthium strumarium = experiment: Experiment 3: glasshouse, post-emergence, fresh weight after 19 days, % inhibition of growth; assay type: in vivo; settings: 2 leaves
Procedure: (§1) A series of experiments was carried out to determine the nature of the biological interaction between atrazine and five compounds of general formula I on a range of weed species. […] The growth stages of the plants at spraying are also presented with the results. Agricultural surfactant (nonyl phenol ethylene oxide condensate containing 9 moles ethylene oxide marketed as 'Agral') was added to all spray dilutions to give 0.2% v/v concentration. […] After 19 days the fresh weight of vegetation in each pot was determined. […] E = […]00003:character} where E, X and Y are percentage inhibition of growth. In addition, the ED50 or ED90 values (the application rates giving 50% or 90% inhibition of growth, respectively) were calculated from the results for the piperidinedione alone and with increasing rates of atrazine.

Sesbania exactata = experiment: as above; assay type: in vivo; settings: 2 leaves
Procedure: as §1

Bidens pilosa = experiment: as above; assay type: in vivo; settings: 2 leaves
Procedure: as §1

Amaranthus retroflexus = experiment: as above; assay type: in vivo; settings: 2-4 leaves
Procedure: as §1

Eleusine indica [1] = experiment: as above; assay type: in vivo; settings: 3 leaves
Procedure: as §1

Digitaria sanguinalis = experiment: as above; assay type: in vivo; settings: 3 leaves
Procedure: as §1

Brassica kaber = experiment: as above; assay type: in vivo; settings: 2-3 leaves
Procedure: as §1

Solanum nigrum = experiment: as above; assay type: in vivo; settings: 1-2 leaves
Procedure: as §1

Eleusine indica [2] = experiment: Experiment 2: glasshouse experiment, seedlings at 4-leaf stage, percentage phytotoxicity after 19 days; assay type: in vivo
Procedure: Agricultural surfactant - nonylphenol ethylene oxide condensate containing 9 moles ethylene oxide (in a commercial composition) was added to all spray dilutions to give 0.2% v/v concentration. […] The ED50 values were as follows:- The results were then used to plot an isobole with a "two-sided effect" according to the methods of […] op. cit. The isobole produced, shown hereinafter in Figure 1 was clearly a type III curve ([…]., page 75), characteristic of synergism.

SMILES: O=C1CCNC(=O)C1C(=O)c1ccc(C(F)(F)F)cc1[N+](=O)[O-] (stereo not drawn) [Compound 74, 3-(2-nitro-4-trifluoromethylbenzoyl)piperidine-2,4-dione]
- % crop phytotoxicity Maize (3 leaves) (maize var.Irla; Compound 74 63 g/ha): 1%
- % crop phytotoxicity Maize (3 leaves) (maize var.Irla; Compound 74 125 g/ha): 3%
- % crop phytotoxicity Maize (3 leaves) (maize var.Irla; Compound 74 250 g/ha): 6%
- % crop phytotoxicity Maize (3 leaves) (maize var.Irla; Compound 74 500 g/ha): 10%
- % crop phytotoxicity Maize (3 leaves) (maize var.Irla; Compound 74 1000 g/ha): 30%
- % crop phytotoxicity Maize (3 leaves) (maize var.Irla; Compound 74 2000 g/ha): 58%
- ED₂₀ (maize var.Irla; Compound 74 alone): ED₂₀(g/ha) 601
- ED₉₀ (Xanthium strumarium; Compound 74 alone): ED₉₀(g/ha) 166.99
- inhibition at 8 g/ha (Xanthium strumarium; Xanthium strumarium, post-emergence, Compound 74 8 g/ha alone): 55%
- inhibition at 16 g/ha (Xanthium strumarium; Xanthium strumarium, post-emergence, Compound 74 16 g/ha alone): 45%
- inhibition at 31 g/ha (Xanthium strumarium; Xanthium strumarium, post-emergence, Compound 74 31 g/ha alone): 74%
- inhibition at 125 g/ha (Xanthium strumarium; Xanthium strumarium, post-emergence, Compound 74 125 g/ha alone): 86%
- inhibition at 163 g/ha (Xanthium strumarium; Xanthium strumarium, post-emergence, Compound 74 163 g/ha alone): 79%
- inhibition at 250 g/ha (Xanthium strumarium; Xanthium strumarium, post-emergence, Compound 74 250 g/ha alone): 92%
- ED₉₀ (Sesbania exactata; Compound 74 alone): ED₉₀(g/ha)375.45
- inhibition at 8 g/ha (Sesbania exactata; Sesbania, post-emergence, Compound 74 8 g/ha alone): 65%
- inhibition at 16 g/ha (Sesbania exactata; Sesbania, post-emergence, Compound 74 16 g/ha alone): 73%
- inhibition at 31 g/ha (Sesbania exactata; Sesbania, post-emergence, Compound 74 31 g/ha alone): 61%
- inhibition at 125 g/ha (Sesbania exactata; Sesbania, post-emergence, Compound 74 125 g/ha alone): 84%
- inhibition at 163 g/ha (Sesbania exactata; Sesbania, post-emergence, Compound 74 163 g/ha alone): 80%
- inhibition at 250 g/ha (Sesbania exactata; Sesbania, post-emergence, Compound 74 250 g/ha alone): 79%
- inhibition at 8 g/ha (Bidens pilosa; Bidens pilosa, post-emergence, Compound 74 8 g/ha alone): 0%
- inhibition at 16 g/ha (Bidens pilosa; Bidens pilosa, post-emergence, Compound 74 16 g/ha alone): 0%
- inhibition at 31 g/ha (Bidens pilosa; Bidens pilosa, post-emergence, Compound 74 31 g/ha alone): 0%
- inhibition at 125 g/ha (Bidens pilosa; Bidens pilosa, post-emergence, Compound 74 125 g/ha alone): 48%
- inhibition at 163 g/ha (Bidens pilosa; Bidens pilosa, post-emergence, Compound 74 163 g/ha alone): 15%
- inhibition at 250 g/ha (Bidens pilosa; Bidens pilosa, post-emergence, Compound 74 250 g/ha alone): 75%
- ED₅₀ (Bidens pilosa; Compound 74 alone): ED₅₀(g/ha)141.27
- inhibition at 2 g/ha (Amaranthus retroflexus; Amaranthus retroflexus, post-emergence, Compound 74 2 g/ha alone): 27%
- inhibition at 4 g/ha (Amaranthus retroflexus; Amaranthus retroflexus, post-emergence, Compound 74 4 g/ha alone): 47%
- inhibition at 8 g/ha (Amaranthus retroflexus; Amaranthus retroflexus, post-emergence, Compound 74 8 g/ha alone): 69%
- inhibition at 16 g/ha (Amaranthus retroflexus; Amaranthus retroflexus, post-emergence, Compound 74 16 g/ha alone): 76%
- inhibition at 31 g/ha (Amaranthus retroflexus; Amaranthus retroflexus, post-emergence, Compound 74 31 g/ha alone): 86%
- inhibition at 63 g/ha (Amaranthus retroflexus; Amaranthus retroflexus, post-emergence, Compound 74 63 g/ha alone): 90%
- ED₉₀ (Amaranthus retroflexus; Compound 74 alone): ED₉₀(g/ha) 46.43
- ED₅₀ (Eleusine indica [1]; Compound 74 alone): ED₅₀ (g/ha) 72.43
- inhibition at 16 g/ha (Eleusine indica [1]; Eleusine indica, post-emergence, Compound 74 16 g/ha alone): 0%
- inhibition at 31 g/ha (Eleusine indica [1]; Eleusine indica, post-emergence, Compound 74 31 g/ha alone): 26%
- inhibition at 63 g/ha (Eleusine indica [1]; Eleusine indica, post-emergence, Compound 74 63 g/ha alone): 55%
- inhibition at 125 g/ha (Eleusine indica [1]; Eleusine indica, post-emergence, Compound 74 125 g/ha alone): 84%
- inhibition at 250 g/ha (Eleusine indica [1]; Eleusine indica, post-emergence, Compound 74 250 g/ha alone): 96%
- inhibition at 500 g/ha (Eleusine indica [1]; Eleusine indica, post-emergence, Compound 74 500 g/ha alone): 95%
- ED₉₀ (Digitaria sanguinalis; Compound 74 alone): ED₉₀ (g/ha) 75.46
- inhibition at 16 g/ha (Digitaria sanguinalis; Digitaria sanguinalis, post-emergence, Compound 74 16 g/ha alone): 55%
- inhibition at 31 g/ha (Digitaria sanguinalis; Digitaria sanguinalis, post-emergence, Compound 74 31 g/ha alone): 75%
- inhibition at 63 g/ha (Digitaria sanguinalis; Digitaria sanguinalis, post-emergence, Compound 74 63 g/ha alone): 88%
- inhibition at 125 g/ha (Digitaria sanguinalis; Digitaria sanguinalis, post-emergence, Compound 74 125 g/ha alone): 96%
- inhibition at 250 g/ha (Digitaria sanguinalis; Digitaria sanguinalis, post-emergence, Compound 74 250 g/ha alone): 99%
- inhibition at 500 g/ha (Digitaria sanguinalis; Digitaria sanguinalis, post-emergence, Compound 74 500 g/ha alone): 100%
- ED₅₀ (Brassica kaber; Compound 74 alone): ED₅₀(g/ha) 10.3
- inhibition at 2 g/ha (Brassica kaber; Mutarda arvensis, post-emergence, Compound 74 2 g/ha alone): 19%
- inhibition at 4 g/ha (Brassica kaber; Mutarda arvensis, post-emergence, Compound 74 4 g/ha alone): 20%
- inhibition at 8 g/ha (Brassica kaber; Mutarda arvensis, post-emergence, Compound 74 8 g/ha alone): 32%
- inhibition at 16 g/ha (Brassica kaber; Mutarda arvensis, post-emergence, Compound 74 16 g/ha alone): 61%
- inhibition at 31 g/ha (Brassica kaber; Mutarda arvensis, post-emergence, Compound 74 31 g/ha alone): 72%
- inhibition at 63 g/ha (Brassica kaber; Mutarda arvensis, post-emergence, Compound 74 63 g/ha alone): 96%
- ED₉₀ (Solanum nigrum; Compound 74 alone): ED₉₀(g/ha) 41.13
- inhibition at 2 g/ha (Solanum nigrum; Solanum nigrum, post-emergence, Compound 74 2 g/ha alone): 15%
- inhibition at 4 g/ha (Solanum nigrum; Solanum nigrum, post-emergence, Compound 74 4 g/ha alone): 30%
- inhibition at 8 g/ha (Solanum nigrum; Solanum nigrum, post-emergence, Compound 74 8 g/ha alone): 39%
- inhibition at 16 g/ha (Solanum nigrum; Solanum nigrum, post-emergence, Compound 74 16 g/ha alone): 60%
- inhibition at 31 g/ha (Solanum nigrum; Solanum nigrum, post-emergence, Compound 74 31 g/ha alone): 82%
- inhibition at 63 g/ha (Solanum nigrum; Solanum nigrum, post-emergence, Compound 74 63 g/ha alone): 94%
- percentage phytotoxicity (Eleusine indica [2]; Compound 74 16 g/ha alone): 13%
- percentage phytotoxicity (Eleusine indica [2]; Compound 74 31 g/ha alone): 12%
- percentage phytotoxicity (Eleusine indica [2]; Compound 74 63 g/ha alone): 40%
- percentage phytotoxicity (Eleusine indica [2]; Compound 74 125 g/ha alone): 50%
- percentage phytotoxicity (Eleusine indica [2]; Compound 74 250 g/ha alone): 77%
- ED₅₀ (Eleusine indica [2]; Compound 74 alone, 50% phytotoxicity): 101 g/ha
